Measurements: article PMC8151276, “An Integrated Approach toward NanoBRET Tracers for Analysis of GPCR Ligand Engagement” (Molecules, 2021)

Tests used:
Assay type in all cases: binding
SSTR4 = target: T1, SSTR4 (Homo sapiens, UniProt P31391); assay: NanoBRET screen HiBiT-SSTR4 in HEK293
T1 construct: purchased Promega (in-house HiBiT-GPCR construct library, NanoBRET)
Experimental: (§1) Each tracer candidate was screened across the entire library of HiBiT-GPCR constructs using NanoBRET as the detection modality. As depicted in Figure 4A, the specificity of interactions was evaluated through decrease in BRET due to competitive displacement of a bound tracer by excess parental compound. Each tracer was analyzed for binding to each HiBiT-GPCR fusion in the absence and in the presence of competing parental compound. Briefly, HEK293 cells were transfected with HiBiT-GPCR constructs diluted into promoterless DNA to reduce expression and maximize translocation to the cell surface. Each tracer candidate was then screened at concentrations of 1 μM and 0.1 μM across cells expressing these fusions. Cells were treated for 1.5 h with tracer either alone or in the presence of 20 μM competing parental compound (i.e., control). BRET was measured upon addition of purified LgBiT and subsequent complementation with HiBiT genetically fused to a GPCR. The specificity of interactions was assessed through a decrease in BRET signal due to competitive displacement of the bound tracer. To further gauge the robustness of these interactions, the fold response over the control (i.e., BRETtracer/BRETcontrol) was calculated. We chose a 1.5-fold response, which translates to ≥7-fold signal over noise as the minimal threshold required to score an interaction as positive. […]. Below we highlight the screening results obtained for our exemplary fluorescent tracers based on Clozapine, Amitriptyline and AZD1283.
(§2) HiBiT-GPCR DNA constructs were diluted in 10 mM Tris pH 8 to a final concentration of 0.01 μg/μL, arrayed in 96-well plates and stored at −20 °C. For transfection, HEK293 cells were suspended in Opti-MEM (without phenol red) supplemented with 2% fetal bovine serum (Seradigm) and 100 units/mL penicillin–streptomycin (Gibco) at a final concentration of 220,000 cells/mL and dispensed into white 96-well plates at 90 μL/well. Subsequent transfections and screens were carried using an Agilent Bravo Automated Liquid Handling Platform. First, the 96-well HiBiT DNA arrays were diluted 25-fold in Opti-MEM (without serum or phenol red) to a final concentration of 0.0004 μg/μL and 20 μL of the diluted DNAs were transferred into new 96-well plates. Next, promoterless carrier DNA (1 μg/μL) was diluted 25-fold (0.04 μg/μL) and then dispensed into the diluted arrays at 20 μL/well. Following brief mixing, Viafect transfection reagent (Promega) diluted 16-fold into Opti-MEM was dispensed into the plates at 40 μL/well. After mixing by pipetting, plates were incubated for 10 min on the pipetting station deck. The DNA-transfection reagent complexes were then added to plates containing cells. To facilitate the screen, 10 μL of DNA-transfection reagent complexes were added in duplicates to the top 4 and bottom 4 rows, resulting in two identical 48-well arrays per plate. Plates with transfected cells were incubated for 18–20 h at 37 °C/5% CO2. A screen of each tracer across the entire library using two different concentrations requires duplicate plates of transfected cells. Depending on the number of tracers being screened, transfections can be scaled up using the same ratios. The next day, for each tracer, four 20× screening solutions in tracer dilution buffer (Promega) were prepared: two duplicates at final concentration of 20 μM and two duplicates at a final concentration of 2 μM. A competing unmodified compound was added to one of each duplicate at a final concentration of 400 μM. The four resulting solutions were diluted 4-fold in Opti-MEM without serum or phenol red to generate 5× solutions (5 µM and 0.5 µM tracer +/− 100 μM competing compound). To screen the library, a BioTek MultiFlo FX liquid dispenser was used to dispense 22.5 µL of tracer solution to the top 4 rows and 22.5 µL tracer + competing compound solution to the 4 bottom rows. Plates were briefly mixed on an orbital shaker and incubated for 1.5 h at room temperature. […]

PTGER2 = target: T2, PTGER2 (Homo sapiens, UniProt P43116); assay: NanoBRET screen HiBiT-PTGER2 in HEK293
T2 construct: purchased Promega (in-house HiBiT-GPCR construct library, NanoBRET)
Experimental: as §1, §2

PTAFR = target: T3, PTAFR (Homo sapiens, UniProt P25105); assay: NanoBRET screen HiBiT-PTAFR in HEK293
T3 construct: purchased Promega (in-house HiBiT-GPCR construct library, NanoBRET)
Experimental: as §1, §2

GRM4 = target: T4, GRM4 (Homo sapiens, UniProt Q14833); assay: NanoBRET screen HiBiT-GRM4 in HEK293
T4 construct: purchased Promega (in-house HiBiT-GPCR construct library, NanoBRET)
Experimental: as §1, §2

FZD2 = target: T5, FZD2 (Homo sapiens, UniProt Q14332); assay: NanoBRET screen HiBiT-FZD2 in HEK293
T5 construct: purchased Promega (in-house HiBiT-GPCR construct library, NanoBRET)
Experimental: as §1, §2

CCKBR = target: T6, CCKBR (Homo sapiens, UniProt P32239); assay: NanoBRET screen HiBiT-CCKBR in HEK293
T6 construct: purchased Promega (in-house HiBiT-GPCR construct library, NanoBRET)
T6 sequence (P32239 1-447): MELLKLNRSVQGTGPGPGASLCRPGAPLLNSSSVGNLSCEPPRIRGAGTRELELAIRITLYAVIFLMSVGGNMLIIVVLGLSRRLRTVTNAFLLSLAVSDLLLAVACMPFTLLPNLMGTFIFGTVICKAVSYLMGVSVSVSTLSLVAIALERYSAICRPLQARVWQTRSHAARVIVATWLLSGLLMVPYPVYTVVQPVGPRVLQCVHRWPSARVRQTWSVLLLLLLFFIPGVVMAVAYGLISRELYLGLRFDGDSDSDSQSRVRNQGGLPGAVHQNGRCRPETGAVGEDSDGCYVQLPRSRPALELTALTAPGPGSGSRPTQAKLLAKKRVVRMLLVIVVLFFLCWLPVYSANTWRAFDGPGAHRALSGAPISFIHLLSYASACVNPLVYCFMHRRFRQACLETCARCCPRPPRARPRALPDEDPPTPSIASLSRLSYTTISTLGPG
Experimental: as §1, §2

T1 sequence (P31391 whole entry): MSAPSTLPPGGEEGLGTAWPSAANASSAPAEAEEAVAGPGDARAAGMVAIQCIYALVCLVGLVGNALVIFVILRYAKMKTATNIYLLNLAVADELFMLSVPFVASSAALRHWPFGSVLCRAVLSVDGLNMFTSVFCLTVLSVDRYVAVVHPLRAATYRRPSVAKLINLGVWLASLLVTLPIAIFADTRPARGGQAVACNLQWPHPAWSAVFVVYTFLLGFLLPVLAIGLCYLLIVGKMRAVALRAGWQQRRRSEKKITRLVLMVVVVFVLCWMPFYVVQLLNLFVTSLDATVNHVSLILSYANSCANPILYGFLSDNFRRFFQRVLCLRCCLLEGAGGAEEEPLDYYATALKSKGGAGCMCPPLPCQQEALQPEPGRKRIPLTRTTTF
T3 sequence (P25105 whole entry): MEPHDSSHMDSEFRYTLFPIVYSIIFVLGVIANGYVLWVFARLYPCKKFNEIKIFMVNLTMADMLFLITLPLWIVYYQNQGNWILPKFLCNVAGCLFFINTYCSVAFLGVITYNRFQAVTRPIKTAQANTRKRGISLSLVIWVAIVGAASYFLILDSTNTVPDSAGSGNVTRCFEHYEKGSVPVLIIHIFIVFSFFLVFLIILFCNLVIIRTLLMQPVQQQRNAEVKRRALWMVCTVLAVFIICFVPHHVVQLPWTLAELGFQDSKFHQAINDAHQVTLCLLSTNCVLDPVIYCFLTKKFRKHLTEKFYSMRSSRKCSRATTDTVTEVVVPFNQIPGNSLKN
T4 sequence (Q14833 33-912): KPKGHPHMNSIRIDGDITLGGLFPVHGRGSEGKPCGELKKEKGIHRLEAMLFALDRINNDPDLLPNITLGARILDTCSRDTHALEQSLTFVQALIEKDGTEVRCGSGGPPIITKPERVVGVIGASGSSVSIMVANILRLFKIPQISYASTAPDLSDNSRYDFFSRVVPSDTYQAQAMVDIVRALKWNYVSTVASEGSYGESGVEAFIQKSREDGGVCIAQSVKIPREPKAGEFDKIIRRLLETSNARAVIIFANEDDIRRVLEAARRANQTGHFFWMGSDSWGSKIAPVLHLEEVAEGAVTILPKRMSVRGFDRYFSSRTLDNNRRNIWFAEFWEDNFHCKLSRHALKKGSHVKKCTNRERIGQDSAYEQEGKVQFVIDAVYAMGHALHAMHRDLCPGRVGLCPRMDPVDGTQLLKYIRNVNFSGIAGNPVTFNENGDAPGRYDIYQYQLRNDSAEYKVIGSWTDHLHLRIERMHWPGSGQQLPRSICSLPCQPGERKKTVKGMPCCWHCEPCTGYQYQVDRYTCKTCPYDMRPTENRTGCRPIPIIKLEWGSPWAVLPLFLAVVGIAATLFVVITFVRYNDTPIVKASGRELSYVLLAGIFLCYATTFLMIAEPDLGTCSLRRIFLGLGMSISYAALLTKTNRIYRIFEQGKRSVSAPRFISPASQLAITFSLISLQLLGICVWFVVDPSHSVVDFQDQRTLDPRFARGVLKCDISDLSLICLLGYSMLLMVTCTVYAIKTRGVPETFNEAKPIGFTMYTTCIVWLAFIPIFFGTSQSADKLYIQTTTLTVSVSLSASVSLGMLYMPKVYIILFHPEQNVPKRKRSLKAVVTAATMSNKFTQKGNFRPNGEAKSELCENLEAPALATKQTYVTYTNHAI
T5 sequence (Q14332 24-565): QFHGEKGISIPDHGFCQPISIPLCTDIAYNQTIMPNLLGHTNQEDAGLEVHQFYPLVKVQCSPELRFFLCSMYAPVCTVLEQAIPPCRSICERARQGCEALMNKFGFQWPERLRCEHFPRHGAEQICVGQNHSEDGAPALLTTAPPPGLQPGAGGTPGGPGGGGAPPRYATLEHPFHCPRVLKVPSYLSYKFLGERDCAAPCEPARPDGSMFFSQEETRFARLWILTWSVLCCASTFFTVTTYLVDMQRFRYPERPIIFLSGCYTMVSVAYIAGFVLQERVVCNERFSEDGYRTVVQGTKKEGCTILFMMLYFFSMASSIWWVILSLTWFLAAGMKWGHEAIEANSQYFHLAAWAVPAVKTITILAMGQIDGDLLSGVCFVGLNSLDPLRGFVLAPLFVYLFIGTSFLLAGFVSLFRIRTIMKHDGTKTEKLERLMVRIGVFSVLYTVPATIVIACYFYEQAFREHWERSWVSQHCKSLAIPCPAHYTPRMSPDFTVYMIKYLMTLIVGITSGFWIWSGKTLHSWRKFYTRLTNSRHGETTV
T2 sequence (P43116 whole entry): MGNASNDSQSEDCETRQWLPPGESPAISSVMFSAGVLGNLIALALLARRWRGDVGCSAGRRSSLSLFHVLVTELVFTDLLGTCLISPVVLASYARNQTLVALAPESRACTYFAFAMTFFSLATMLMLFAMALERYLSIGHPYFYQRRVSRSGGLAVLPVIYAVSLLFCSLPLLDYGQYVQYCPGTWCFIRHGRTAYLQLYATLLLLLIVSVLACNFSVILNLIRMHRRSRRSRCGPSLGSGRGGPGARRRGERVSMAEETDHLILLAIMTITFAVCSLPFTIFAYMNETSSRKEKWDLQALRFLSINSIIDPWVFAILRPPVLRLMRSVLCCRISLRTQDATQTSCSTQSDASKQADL

| Structure (SMILES) | NanoBRET Fold Response (SSTR4; SSTR4, 0.1μM tracer) | NanoBRET Fold Response (SSTR4; SSTR4, 1μM tracer) | NanoBRET Fold Response (PTGER2; PTGER2, 0.1μM tracer) | NanoBRET Fold Response (PTGER2; PTGER2, 1μM tracer) | NanoBRET Fold Response (PTAFR; PTAFR, 0.1μM tracer) | NanoBRET Fold Response (PTAFR; PTAFR, 1μM tracer) | NanoBRET Fold Response (GRM4; GRM4, 0.1μM tracer) | NanoBRET Fold Response (GRM4; GRM4, 1μM tracer) | NanoBRET Fold Response (FZD2; FZD2, 0.1μM tracer) | NanoBRET Fold Response (FZD2; FZD2, 1μM tracer) | NanoBRET Fold Response (CCKBR; CCKBR, 0.1μM tracer) | NanoBRET Fold Response (CCKBR; CCKBR, 1μM tracer) | other results |
| --- | --- | --- | --- | --- | --- | --- | --- | --- | --- | --- | --- | --- | --- |
| COc1ccccc1N1CCN(CCCCN2C(=O)c3ccc(CNC(=O)CCOCCOCCOCCOCCNC(=O)CCc4ccc5n4[B-](F)(F)[N+]4=C(c6ccc[nH]6)C=CC4=C5)cc3C2=O)CC1 [NAN-190-2-NB590] | – | – | – | – | – | – | – | – | – | – | – | – | NanoBRET Fold Response (SSTR4; SSTR4, tracer 0.1μM): 1.02; NanoBRET Fold Response (SSTR4; SSTR4, tracer 1μM): 1.00; NanoBRET Fold Response (PTGER2; PTGER2, tracer 0.1μM): 1.02; NanoBRET Fold Response (PTGER2; PTGER2, tracer 1μM): 0.98; NanoBRET Fold Response (PTAFR; PTAFR, tracer 0.1μM): 1.03; NanoBRET Fold Response (PTAFR; PTAFR, tracer 1μM): 1.04; NanoBRET Fold Response (GRM4; GRM4, tracer 0.1μM): 0.98; NanoBRET Fold Response (GRM4; GRM4, tracer 1μM): 0.97; NanoBRET Fold Response (FZD2; FZD2, tracer 0.1μM): 0.97; NanoBRET Fold Response (FZD2; FZD2, tracer 1μM): 1.02; NanoBRET Fold Response (CCKBR; CCKBR, tracer 0.1μM): 1.00; NanoBRET Fold Response (CCKBR; CCKBR, tracer 1μM): 0.97 |
| CN1CCN(C2=Nc3cc(Cl)ccc3N(CC(=O)NCCOCCOCCOCCOCCNC(=O)CCc3ccc4n3[B-](F)(F)[N+]3=C(c5ccc[nH]5)C=CC3=C4)c3ccccc32)CC1 [Clozapine-c-2-NB590] | 1.03 | 1.00 | 0.98 | 1.09 | 1.01 | 1.02 | 0.94 | 1.14 | 1.01 | 0.90 | 1.04 | 1.01 | – |
| COc1ccc2[nH]c(-c3ccc(CNC(=O)CCOCCOCCOCCOCCNC(=O)CCc4ccc5n4[B-](F)(F)[N+]4=C(c6ccc[nH]6)C=CC4=C5)cc3)c(CCNC(C)=O)c2n1 [AzomelatoninICO9-2-NB590] | – | – | – | – | – | – | – | – | – | – | – | – | NanoBRET Fold Response (SSTR4; 0.1μM tracer): 0.84; NanoBRET Fold Response (SSTR4; 1μM tracer): 0.98; NanoBRET Fold Response (PTGER2; 0.1μM tracer): 1.01; NanoBRET Fold Response (PTGER2; 1μM tracer): 0.97; NanoBRET Fold Response (PTAFR; 0.1μM tracer): 1.01; NanoBRET Fold Response (PTAFR; 1μM tracer): 0.99; NanoBRET Fold Response (GRM4; 0.1μM tracer): 0.97; NanoBRET Fold Response (GRM4; 1μM tracer): 0.85; NanoBRET Fold Response (FZD2; 0.1μM tracer): 0.99; NanoBRET Fold Response (FZD2; 1μM tracer): 1.11; NanoBRET Fold Response (CCKBR; 0.1μM tracer): 1.13; NanoBRET Fold Response (CCKBR; 1μM tracer): 1.16 |
| O=C(CCOCCOCCOCCOCCNC(=O)CCc1ccc2n1[B-](F)(F)[N+]1=C(c3ccc[nH]3)C=CC1=C2)NCCCN1CCN(C2=Nc3cc(Cl)ccc3Nc3ccccc32)CC1 [Clozapine-a-2-NB590] | 1.11 | 1.20 | 1.01 | 1.05 | 1.01 | 0.99 | 1.02 | 0.99 | 1.04 | 1.02 | 1.01 | 1.01 | – |
